Results: patent US11076594B2, “Pyrazolone compound or salt thereof, preparation method therefor, herbicide composition and use thereof” (QINGDAO KINGAGROOT CHEMICAL COMPOUNDS CO., LTD., priority 2015, dated 2021)

How the values were obtained:
Format in all cases: in vivo
[1] = system: wheat; assay: post-emergence stage experiment, crop (Table 1); conditions: post-emergence spray at 4-5 leaf stage, 250 g/ha active ingredient with 450 kg/ha water, rated after 3 weeks in greenhouse
Summary of the method: (§1)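 Seeds were sown in pots, covered with 0.5-2 cm soil and grown in a greenhouse. At the 4-5 leaf stage, plants were sprayed with the test compound formulated in acetone, Tween 80 and water. Fresh weight control was rated after 3 weeks.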

[2] = system: corn; assay: post-emergence stage experiment, crop (Table 1); conditions: post-emergence spray at 4-5 leaf stage, 250 g/ha active ingredient with 450 kg/ha water, rated after 3 weeks in greenhouse
Summary of the method: as §1

[3] = system: alopecurus japonicas; assay: wheat field resistant weed control, greenhouse spray at 4 leaf stage; parameters: key: Level 10: completely dead; Level 9: above 95% growth control rate; Level 8: above 90% growth control rate; Level 7: above 80% growth control rate; Level 6: above 70% growth control rate; Level 5: above 60% growth control rate; Level 4: above 50% growth control rate; Level 3: above 20% growth control rate; Level 2: 5%-20% growth control rate; Level 1: below 5% growth control rate; conditions: sprayed at 4 leaf stage, 4 weeks after treatment, resistant to ALS and ACCase inhibitor herbicides
Description: (§2) The activity level standard of harmful plant destruction (i.e. growth control rate) is as follows:
(§3) The above described growth control rate is fresh weight control rate.
(§4) The seeds of alopecurus japonicas, flixweed, shepherd's purse, corn gromwell, chickweed, beckmannia syzigachne, and annual ryegrass and wheat seeds were put into a plastic pot loaded with soil, and then covered with 0.5-2 cm soil, the seeds were allowed to grow in good greenhouse environment. The test plants were treated at 4 leaf stage 2-3 weeks after sowing. The test compounds of the present invention were dissolved in acetone respectively, then added with methyl oleate emulsion and diluted by certain amount of water to certain concentration. The solution was sprayed to the plant with a sprayer. Then the plants were cultured for 4 weeks in greenhouse.

[4] = system: bidens bipinnata; assay: weed control effect in post-emergence stage (Table 1); parameters: key: Level 10: completely dead; Level 9: above 95% growth control rate; Level 8: above 90% growth control rate; Level 7: above 80% growth control rate; Level 6: above 70% growth control rate; Level 5: above 60% growth control rate; Level 4: above 50% growth control rate; Level 3: above 20% growth control rate; Level 2: 5%-20% growth control rate; Level 1: below 5% growth control rate; conditions: post-emergence spray at 4-5 leaf stage, 250 g/ha active ingredient with 450 kg/ha water, rated after 3 weeks in greenhouse
Summary of the method: as §1

[5] = system: echinochloa; assay: as above; parameters: key: Level 10: completely dead; Level 9: above 95% growth control rate; Level 8: above 90% growth control rate; Level 7: above 80% growth control rate; Level 6: above 70% growth control rate; Level 5: above 60% growth control rate; Level 4: above 50% growth control rate; Level 3: above 20% growth control rate; Level 2: 5%-20% growth control rate; Level 1: below 5% growth control rate; conditions: post-emergence spray at 4-5 leaf stage, 250 g/ha active ingredient with 450 kg/ha water, rated after 3 weeks in greenhouse
Summary of the method: as §1

[6] = system: foxtail; assay: as above; parameters: key: Level 10: completely dead; Level 9: above 95% growth control rate; Level 8: above 90% growth control rate; Level 7: above 80% growth control rate; Level 6: above 70% growth control rate; Level 5: above 60% growth control rate; Level 4: above 50% growth control rate; Level 3: above 20% growth control rate; Level 2: 5%-20% growth control rate; Level 1: below 5% growth control rate; conditions: post-emergence spray at 4-5 leaf stage, 250 g/ha active ingredient with 450 kg/ha water, rated after 3 weeks in greenhouse
Summary of the method: as §1

[7] = system: Indian mallow; assay: as above; parameters: key: Level 10: completely dead; Level 9: above 95% growth control rate; Level 8: above 90% growth control rate; Level 7: above 80% growth control rate; Level 6: above 70% growth control rate; Level 5: above 60% growth control rate; Level 4: above 50% growth control rate; Level 3: above 20% growth control rate; Level 2: 5%-20% growth control rate; Level 1: below 5% growth control rate; conditions: post-emergence spray at 4-5 leaf stage, 250 g/ha active ingredient with 450 kg/ha water, rated after 3 weeks in greenhouse
Summary of the method: as §1

[8] = system: rorippa indica; assay: as above; parameters: key: Level 10: completely dead; Level 9: above 95% growth control rate; Level 8: above 90% growth control rate; Level 7: above 80% growth control rate; Level 6: above 70% growth control rate; Level 5: above 60% growth control rate; Level 4: above 50% growth control rate; Level 3: above 20% growth control rate; Level 2: 5%-20% growth control rate; Level 1: below 5% growth control rate; conditions: post-emergence spray at 4-5 leaf stage, 250 g/ha active ingredient with 450 kg/ha water, rated after 3 weeks in greenhouse
Summary of the method: as §1

[9] = system: crab grass; assay: as above; parameters: key: Level 10: completely dead; Level 9: above 95% growth control rate; Level 8: above 90% growth control rate; Level 7: above 80% growth control rate; Level 6: above 70% growth control rate; Level 5: above 60% growth control rate; Level 4: above 50% growth control rate; Level 3: above 20% growth control rate; Level 2: 5%-20% growth control rate; Level 1: below 5% growth control rate; conditions: post-emergence spray at 4-5 leaf stage, 250 g/ha active ingredient with 450 kg/ha water, rated after 3 weeks in greenhouse
Summary of the method: as §1

[10] = system: wheat; assay: wheat field test, crop selectivity, greenhouse spray at 4 leaf stage; conditions: 4 weeks after treatment
Description: as §2, §3, §4

[11] = system: rice; assay: post-emergence stage experiment, crop (Table 1); conditions: post-emergence spray at 4-5 leaf stage, 250 g/ha active ingredient with 450 kg/ha water, rated after 3 weeks in greenhouse
Summary of the method: as §1

[12] = system: shepherd's purse; assay: wheat field resistant broadleaf weed control, greenhouse spray at 4 leaf stage; parameters: key: Level 10: completely dead; Level 9: above 95% growth control rate; Level 8: above 90% growth control rate; Level 7: above 80% growth control rate; Level 6: above 70% growth control rate; Level 5: above 60% growth control rate; Level 4: above 50% growth control rate; Level 3: above 20% growth control rate; Level 2: 5%-20% growth control rate; Level 1: below 5% growth control rate; conditions: 250 g/ha of the active substance; 4 weeks after treatment; ALS inhibitor resistant
Description: as §2, §3, §4

[13] = system: flixweed; assay: as above; parameters: key: Level 10: completely dead; Level 9: above 95% growth control rate; Level 8: above 90% growth control rate; Level 7: above 80% growth control rate; Level 6: above 70% growth control rate; Level 5: above 60% growth control rate; Level 4: above 50% growth control rate; Level 3: above 20% growth control rate; Level 2: 5%-20% growth control rate; Level 1: below 5% growth control rate; conditions: 250 g/ha of the active substance; 4 weeks after treatment; ALS inhibitor resistant
Description: as §2, §3, §4

[14] = system: corn gromwell; assay: as above; parameters: key: Level 10: completely dead; Level 9: above 95% growth control rate; Level 8: above 90% growth control rate; Level 7: above 80% growth control rate; Level 6: above 70% growth control rate; Level 5: above 60% growth control rate; Level 4: above 50% growth control rate; Level 3: above 20% growth control rate; Level 2: 5%-20% growth control rate; Level 1: below 5% growth control rate; conditions: 250 g/ha of the active substance; 4 weeks after treatment; ALS inhibitor resistant
Description: as §2, §3, §4

[15] = system: chickweed; assay: as above; parameters: key: Level 10: completely dead; Level 9: above 95% growth control rate; Level 8: above 90% growth control rate; Level 7: above 80% growth control rate; Level 6: above 70% growth control rate; Level 5: above 60% growth control rate; Level 4: above 50% growth control rate; Level 3: above 20% growth control rate; Level 2: 5%-20% growth control rate; Level 1: below 5% growth control rate; conditions: 250 g/ha of the active substance; 4 weeks after treatment; ALS inhibitor resistant
Description: as §2, §3, §4

[16] = 2 g/mu, sprayed at 4 leaf stage
[17] = 4 g/mu, sprayed at 4 leaf stage
[18] = 8 g/mu, sprayed at 4 leaf stage
[19] = 16 g/mu, sprayed at 4 leaf stage
[20] = 32 g/mu, sprayed at 4 leaf stage
[21] = 250 g/ha of the active substance

Compound | effect on crop, Wheat (level) [1] | effect on crop, Corn (level) [2] | Alopecurus japonicas weed controlling effect (activity level) ([3]; 1 g/mu) | Alopecurus japonicas weed controlling effect (activity level) ([3]; 2 g/mu) | Alopecurus japonicas weed controlling effect (activity level) ([3]; 4 g/mu) | Alopecurus japonicas weed controlling effect (activity level) ([3]; 8 g/mu) | weed control effect, Bidens bipinnata (level) [4] | weed control effect, Echinochloa (level) [5] | weed control effect, Green foxtail (level) [6] | weed control effect, Indian mallow (level) [7] | weed control effect, Rorippa indica (level) [8] | weed control effect, Crab grass (level) [9] | Wheat (activity level, crop damage) [10, 16] | Wheat (activity level, crop damage) [10, 17] | Wheat (activity level, crop damage) [10, 18] | Wheat (activity level, crop damage) [10, 19] | Wheat (activity level, crop damage) [10, 20] | effect on crop, Rice (level) [11] | Wheat (activity level, crop damage) [10, 21] | shepherd's purse weed controlling effect (activity level) [12] | other results
Cc1nn(C)cc1C(=O)Oc1c(C(=O)c2ccc(C(F)(F)F)c(N3CCCC3=O)c2Cl)c(C2CC2)nn1C [Compound 027] | 3 (Level 3: above 20% growth control rate) | 4 (Level 4: above 50% growth control rate) | 6 (Level 6: above 70% growth control rate) | 10 | 10 | 10 | 8 (Level 8: above 90% growth control rate) | 7 (Level 7: above 80% growth control rate) | 10 | 10 | 7 (Level 7: above 80% growth control rate) | 8 (Level 8: above 90% growth control rate) | 1 (Level 1: below 5% growth control rate) | 4 (Level 4: above 50% growth control rate) | 4 (Level 4: above 50% growth control rate) | 4 (Level 4: above 50% growth control rate) | 5 (Level 5: above 60% growth control rate) | 7 (Level 7: above 80% growth control rate) |  |  | 
Cn1cc(C(=O)Oc2c(C(=O)c3ccc(C(F)(F)F)c(N4CCCCC4=O)c3Cl)c(C3CC3)nn2C)cn1 [Compound 049] | 3 (Level 3: above 20% growth control rate) | 2 (Level 2: 5%-20% growth control rate) | 8 (Level 8: above 90% growth control rate) | 9 (Level 9: above 95% growth control rate) | 10 | 10 | 4 (Level 4: above 50% growth control rate) | 6 (Level 6: above 70% growth control rate) | 9 (Level 9: above 95% growth control rate) | 10 | 10 | 6 (Level 6: above 70% growth control rate) | 0 | 1 (Level 1: below 5% growth control rate) | 1 (Level 1: below 5% growth control rate) | 3 (Level 3: above 20% growth control rate) | 3 (Level 3: above 20% growth control rate) | 7 (Level 7: above 80% growth control rate) |  |  | 
CCn1nc(C2CC2)c(C(=O)c2ccc(C(F)(F)F)c(N3CCCCC3=O)c2Cl)c1OC(=O)c1cn(C)nc1C [Compound 115] | 1 (Level 1: below 5% growth control rate) | 3 (Level 3: above 20% growth control rate) | 4 (Level 4: above 50% growth control rate) | 6 (Level 6: above 70% growth control rate) | 10 | 10 | 6 (Level 6: above 70% growth control rate) | 9 (Level 9: above 95% growth control rate) | 10 | 10 | 10 | 2 (Level 2: 5%-20% growth control rate) | 0 | 1 (Level 1: below 5% growth control rate) | 3 (Level 3: above 20% growth control rate) | 4 (Level 4: above 50% growth control rate) | 4 (Level 4: above 50% growth control rate) | 8 (Level 8: above 90% growth control rate) |  |  | 
CC(C)n1nc(C2CC2)c(C(=O)c2ccc(C(F)(F)F)c(N3CCCCC3=O)c2Cl)c1O [Compound 147] |  |  |  |  |  |  |  |  |  |  |  |  |  |  |  |  |  |  | 0 | 10 | flixweed weed controlling effect (activity level) [13]: 10; corn gromwell weed controlling effect (activity level) [14]: 10; chickweed weed controlling effect (activity level) [15]: 9 (Level 9: above 95% growth control rate)
O=C(c1ccc(C(F)(F)F)c(N2CCCCC2=O)c1Cl)c1c(C2CC2)nn(C2CC2)c1O [Compound 148] |  |  |  |  |  |  |  |  |  |  |  |  |  |  |  |  |  |  | 1 (Level 1: below 5% growth control rate) | 10 | flixweed weed controlling effect (activity level) [13]: 10; corn gromwell weed controlling effect (activity level) [14]: 10; chickweed weed controlling effect (activity level) [15]: 10
